Data from patent US6914045B2, “Glycopeptide antibiotics” (Wyeth Holdings Corporation, priority 2001, dated 2005).
Values after ≈ are worked out from the molar mass of the structure shown.

Experiments:
[1] = test system: Enterococcus faecalis (GC 6189); assay: acute lethal infection in mice; type: in vivo; conditions: female CD-1 mice, intraperitoneal challenge, intravenous 30 min. after infection, 7 day survival
Summary of the method: (§1)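 Intraperitoneal challenge of female CD-1 mice with a bacterial dose lethal to untreated animals within 24-48 hr; single iv treatment 30 min later, 5 mice per dose level. Survival is scored at day 7 and pooled from three experiments to give the median effective dose.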

[2] = test system: Staphylococcus aureus-SMITH (GC 4543); assay: acute lethal infection in mice; type: in vivo; conditions: acute lethal infection, female CD-1 mice, intraperitoneal challenge, intravenous 30 min. after infection, 7 day survival
Summary of the method: as §1

Enterococcus sp. = assay: in vitro antibacterial evaluation, MIC by broth dilution; type: cell-based; conditions: broth dilution, 18 hours at 35° C.
Summary of the method: (§2)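 Following National Committee for Clinical Laboratory Standards recommendations (M7-A2), susceptibility was measured by dilution in Muller-Hinton II […]. Bacteria were seeded at 5×10^5 CFU/mL against compound concentrations from 64 down to 0.06 μg/mL.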

Escherichia coli = assay: as above; type: cell-based; conditions: 18 hours at 35° C.
Summary of the method: as §2

Staphylococcus sp. = assay: as above; type: cell-based; conditions: broth dilution, 18 hours at 35° C.
Summary of the method: as §2

Streptococcus sp. = assay: as above; type: cell-based; conditions: broth dilution, 18 hours at 35° C.
Summary of the method: as §2

`CC(c1ccccc1)C1NC(=O)CNC(=O)C(CO)NC(=O)C(C(O)C2CNC(=N)N2C2OC(CO)C(O)C(O)C2O)NC(=O)C(C(O)C2CNC(=N)N2)NC(=O)C(Cc2ccc(OC3OC(CO)C(OC4OC5COC(C6CC=CCC6)OC5C(O)C4O)C(O)C3O)cc2)NC1=O` (stereo not drawn) [Example 115, Cyclo[glycyl-β-methylphenylalanyl-O-[4-O-[4,6-O-(cyclohex-3-en-1-ylmethylene)hexopyranosyl]hexopyranosyl]tyrosyl-3-(2-iminoimidazolidin-4-yl)seryl-3-(3-hexopyranosyl-2-iminoimidazolidin-4-yl)serylseryl]] was tested, and the median effective dose (ED50), Enterococcus faecalis (GC 6189) [1] was 0.36 mg/kg, the median effective dose (ED50), Staphylococcus aureus-SMITH (GC 4543) [2] was 0.23 mg/kg and the “MIC Enterococcus avium (GC 4558)” value (Enterococcus sp.; Enterococcus avium (GC 4558)) was 2 µg/mL (≈ 1.44 µM). The “MIC Enterococcus faecalis (ATCC 29212)” value (Enterococcus sp.; Enterococcus faecalis (ATCC 29212)) was 2 µg/mL (≈ 1.44 µM), the “MIC Enterococcus faecalis (GC 2242)” value (Enterococcus sp.; Enterococcus faecalis (GC 2242)) was 2 µg/mL (≈ 1.44 µM) and the “MIC Enterococcus faecalis (GC 2691)” value (Enterococcus sp.; Enterococcus faecalis (GC 2691)) was 2 µg/mL (≈ 1.44 µM). The “MIC Enterococcus faecalis (GC 3059)” value (Enterococcus sp.; Enterococcus faecalis (GC 3059)) was 2 µg/mL (≈ 1.44 µM), the “MIC Enterococcus faecalis (GC 4552)” value (Enterococcus sp.; Enterococcus faecalis (GC 4552)) was 2 µg/mL (≈ 1.44 µM) and the “MIC Enterococcus faecalis (GC 4553)” value (Enterococcus sp.; Enterococcus faecalis (GC 4553)) was 4 µg/mL (≈ 2.88 µM). For the same compound, the “MIC Enterococcus faecalis (GC 4554)” value (Enterococcus sp.; Enterococcus faecalis (GC 4554)) was 2 µg/mL (≈ 1.44 µM), the “MIC Enterococcus faecalis (GC 6189)” value (Enterococcus sp.; Enterococcus faecalis (GC 6189)) was 2 µg/mL (≈ 1.44 µM) and the “MIC Enterococcus faecium (GC 2243)” value (Enterococcus sp.; Enterococcus faecium (GC 2243)) was 2 µg/mL (≈ 1.44 µM). The “MIC Enterococcus faecium (GC 4556)” value (Enterococcus sp.; Enterococcus faecium (GC 4556)) was 2 µg/mL (≈ 1.44 µM), the “MIC Enterococcus faecium (GC 4557)” value (Enterococcus sp.; Enterococcus faecium (GC 4557)) was 2 µg/mL (≈ 1.44 µM) and the “MIC Enterococcus faecalis (ATCC 29212)” value (Enterococcus sp.; strain ATCC 29212) was 2 µg/mL (≈ 1.44 µM). The “MIC Enterococcus faecalis (GC 2242)” value (Enterococcus sp.; strain GC 2242) was 2 µg/mL (≈ 1.44 µM), the “MIC Enterococcus faecium (GC 2243)” value (Enterococcus sp.; strain GC 2243) was 2 µg/mL (≈ 1.44 µM) and the “MIC Enterococcus faecalis (GC 2691)” value (Enterococcus sp.; strain GC 2691) was 2 µg/mL (≈ 1.44 µM). The “MIC Enterococcus faecalis (GC 3059)” value (Enterococcus sp.; strain GC 3059) was 2 µg/mL (≈ 1.44 µM), the “MIC Enterococcus faecalis (GC 4552)” value (Enterococcus sp.; strain GC 4552) was 2 µg/mL (≈ 1.44 µM) and the “MIC Enterococcus faecalis (GC 4553)” value (Enterococcus sp.; strain GC 4553) was 4 µg/mL (≈ 2.88 µM). The “MIC Enterococcus faecalis (GC 4554)” value (Enterococcus sp.; strain GC 4554) was 2 µg/mL (≈ 1.44 µM), the “MIC Enterococcus faecium (GC 4556)” value (Enterococcus sp.; strain GC 4556) was 2 µg/mL (≈ 1.44 µM) and the “MIC Enterococcus faecium (GC 4557)” value (Enterococcus sp.; strain GC 4557) was 2 µg/mL (≈ 1.44 µM). For the same compound, the “MIC Enterococcus avium (GC 4558)” value (Enterococcus sp.; strain GC 4558) was 2 µg/mL (≈ 1.44 µM), the “MIC Enterococcus faecalis (GC 6189)” value (Enterococcus sp.; strain GC 6189) was 2 µg/mL (≈ 1.44 µM) and the “MIC Escherichia coli (ATCC 25922)” value (Escherichia coli; strain ATCC 25922) was 32 µg/mL (≈ 23.1 µM). The “MIC Escherichia coli (GC 4559)” value (Escherichia coli; strain GC 4559) was 64 µg/mL (≈ 46.1 µM), the “MIC Escherichia coli (GC 4560)” value (Escherichia coli; strain GC 4560) was 1 µg/mL (≈ 0.721 µM) and the “MIC Coagulase Negative Staphylococcus (GC 4547)” value (Staphylococcus sp.) was 1 µg/mL (≈ 0.721 µM). For the same compound, the “MIC Coagulase Negative Staphylococcus (GC 4548)” value (Staphylococcus sp.) was 0.5 µg/mL (≈ 0.36 µM), the “MIC Coagulase Negative Staphylococcus (GC 4549)” value (Staphylococcus sp.) was 1 µg/mL (≈ 0.721 µM) and the “MIC Coagulase Negative Staphylococcus (GC 4551)” value (Staphylococcus sp.) was 1 µg/mL (≈ 0.721 µM). The “MIC Coagulase Negative Staphylococcus (GC 6257)” value (Staphylococcus sp.) was 0.5 µg/mL (≈ 0.36 µM), the “MIC Staphylococcus aureus (ATCC 29213)” value (Staphylococcus sp.) was 1 µg/mL (≈ 0.721 µM) and the “MIC Staphylococcus aureus (GC 1131)” value (Staphylococcus sp.) was 1 µg/mL (≈ 0.721 µM). The “MIC Staphylococcus aureus (GC 3051)” value (Staphylococcus sp.) was 1 µg/mL (≈ 0.721 µM), the “MIC Staphylococcus aureus (GC 3053)” value (Staphylococcus sp.) was 1 µg/mL (≈ 0.721 µM) and the “MIC Staphylococcus aureus (GC 4541)” value (Staphylococcus sp.) was 1 µg/mL (≈ 0.721 µM). The “MIC Staphylococcus aureus (GC 4542)” value (Staphylococcus sp.) was 0.5 µg/mL (≈ 0.36 µM), the “MIC Staphylococcus aureus (GC 4544)” value (Staphylococcus sp.) was 1 µg/mL (≈ 0.721 µM) and the “MIC Staphylococcus aureus (GC 4545)” value (Staphylococcus sp.) was 0.5 µg/mL (≈ 0.36 µM). For the same compound, the “MIC Staphylococcus aureus-SMITH (GC 4543)” value (Staphylococcus sp.) was 1 µg/mL (≈ 0.721 µM), the “MIC Staphylococcus haemolyticus (GC 4546)” value (Staphylococcus sp.) was 0.5 µg/mL (≈ 0.36 µM) and the “MIC Staphylococcus aureus (GC 1131)” value (Staphylococcus sp.; inoculum 5×10^5 CFU/mL, strain GC 1131) was 1 µg/mL (≈ 0.721 µM). The “MIC Staphylococcus aureus (ATCC 29213)” value (Staphylococcus sp.; strain ATCC 29213) was 1 µg/mL (≈ 0.721 µM), the “MIC Staphylococcus aureus (GC 3051)” value (Staphylococcus sp.; strain GC 3051) was 1 µg/mL (≈ 0.721 µM) and the “MIC Staphylococcus aureus (GC 3053)” value (Staphylococcus sp.; strain GC 3053) was 1 µg/mL (≈ 0.721 µM). For the same compound, the “MIC Staphylococcus aureus (GC 4541)” value (Staphylococcus sp.; strain GC 4541) was 1 µg/mL (≈ 0.721 µM), the “MIC Staphylococcus aureus (GC 4542)” value (Staphylococcus sp.; strain GC 4542) was 0.5 µg/mL (≈ 0.36 µM) and the “MIC Staphylococcus aureus (GC 4544)” value (Staphylococcus sp.; strain GC 4544) was 1 µg/mL (≈ 0.721 µM). The “MIC Staphylococcus aureus (GC 4545)” value (Staphylococcus sp.; strain GC 4545) was 0.5 µg/mL (≈ 0.36 µM), the “MIC Staphylococcus haemolyticus (GC 4546)” value (Staphylococcus sp.; strain GC 4546) was 0.5 µg/mL (≈ 0.36 µM) and the “MIC Coagulase Negative Staphylococcus (GC 4547)” value (Staphylococcus sp.; strain GC 4547) was 1 µg/mL (≈ 0.721 µM). For the same compound, the “MIC Coagulase Negative Staphylococcus (GC 4548)” value (Staphylococcus sp.; strain GC 4548) was 0.5 µg/mL (≈ 0.36 µM), the “MIC Coagulase Negative Staphylococcus (GC 4549)” value (Staphylococcus sp.; strain GC 4549) was 1 µg/mL (≈ 0.721 µM) and the “MIC Coagulase Negative Staphylococcus (GC 4551)” value (Staphylococcus sp.; strain GC 4551) was 1 µg/mL (≈ 0.721 µM). For the same compound, the “MIC Coagulase Negative Staphylococcus (GC 6257)” value (Staphylococcus sp.; strain GC 6257) was 0.5 µg/mL (≈ 0.36 µM), the “MIC Staphylococcus aureus-SMITH (GC 4543)” value (Staphylococcus sp.; strain SMITH GC 4543) was 1 µg/mL (≈ 0.721 µM) and the “MIC Streptococcus agalactiae (GC 4564)” value (Streptococcus sp.; Streptococcus agalactiae (GC 4564)) was 0.25 µg/mL (≈ 0.18 µM). The “MIC Streptococcus pneumoniae (ATCC 6301)” value (Streptococcus sp.; Streptococcus pneumoniae (ATCC 6301)) was less than 0.06 µg/mL, the “MIC Streptococcus pneumoniae (GC 1894)” value (Streptococcus sp.; Streptococcus pneumoniae (GC 1894)) was less than 0.06 µg/mL and the “MIC Streptococcus pneumoniae (GC 4565)” value (Streptococcus sp.; Streptococcus pneumoniae (GC 4565)) was 0.12 µg/mL (≈ 0.0865 µM). The “MIC Streptococcus pyogenes (GC 4563)” value (Streptococcus sp.; Streptococcus pyogenes (GC 4563)) was 0.25 µg/mL (≈ 0.18 µM), the “MIC Streptococcus pneumoniae (ATCC 6301)” value (Streptococcus sp.; strain ATCC 6301) was less than 0.06 µg/mL and the “MIC Streptococcus pneumoniae (GC 1894)” value (Streptococcus sp.; strain GC 1894) was less than 0.06 µg/mL. For the same compound, the “MIC Streptococcus pyogenes (GC 4563)” value (Streptococcus sp.; strain GC 4563) was 0.25 µg/mL (≈ 0.18 µM), the “MIC Streptococcus agalactiae (GC 4564)” value (Streptococcus sp.; strain GC 4564) was 0.25 µg/mL (≈ 0.18 µM) and the “MIC Streptococcus pneumoniae (GC 4565)” value (Streptococcus sp.; strain GC 4565) was 0.12 µg/mL (≈ 0.0865 µM).
